Reference: ChEMBL document CHEMBL1201862, “PubChem BioAssay data set” (2004)
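Five compound concentrations were applied to cells in 96-well plates for 48 hours; endpoints were derived by simple linear interpolation of the resulting dose-response curve. GI50 = concentration required for 50% inhibition of growth.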 Calls of active or inactive are those of the source. No stated cut-off is given here; in the data, active = GI50 up to about 1.1 µM and inactive = higher.

Columns and labels:
Experiment in all cases: inhibition of tumour cell growth, NCI panel, 48 h
[1] = system: CCRF-CEM
[2] = system: HL-60
[3] = system: HT-29
[4] = system: Hs-578T
[5] = system: M14
[6] = system: MDA-MB-435
[7] = system: MOLT-4
[8] = system: OVCAR-8
[9] = system: SK-MEL-28
[10] = system: SW-620
[11] = system: TK-10
[12] = system: BT-549
[13] = system: HCT-116
[14] = system: LOX IMVI
[15] = system: MDA-MB-231
[16] = system: MDA-N
[17] = system: NCI-H23
[18] = system: A498

Measured: GI50

O=C1OC(c2ccccc2)=N/C1=C/c1cccs1
inactive: [1] 23.4 µM | [2] 18.8 µM | [3] > 100 µM | [4] 87.1 µM | [5] > 100 µM | [6] > 100 µM | [7] 14.5 µM | [8] 63.1 µM | [9] > 100 µM | [10] > 100 µM | [11] > 100 µM

Clc1ccc(OCC2NC3CCC2CC3)cn1 (stereo unspecified)
inactive: [12] 68.7 µM | [1] 25 µM | [13] 20.7 µM | [2] 24.4 µM | [3] 17.9 µM | [4] 57.1 µM | [14] 18.4 µM | [5] 21.2 µM | [15] 19.1 µM | [6] 20.4 µM | [16] 16.8 µM | [7] 17.2 µM | [17] 49.2 µM | [8] 31.5 µM | [9] 37.8 µM | [10] 22.7 µM | [11] 42.3 µM

COc1cc(C2c3cc4c(cc3OC(NCCO)C2C)OCO4)cc(OC)c1O (stereo unspecified)
inactive: [12] 9.53 µM | [13] 5.06 µM | [3] 7.11 µM | [5] 9.55 µM | [15] 7.23 µM | [6] 2.1 µM | [16] 1.61 µM | [17] 24.6 µM | [8] 19 µM | [9] 7.64 µM | [10] 5.53 µM | [11] 12.8 µM

CC(C)C(N)C(=O)NC(CCC(=O)NCCCCC(N)C(=O)NCCCNc1ccc([N+](=O)[O-])c2[nH]c3ccccc3c(=O)c12)C(N)=O (stereo unspecified)
inactive: [18] 59 µM | [12] 13.7 µM | [1] 34.5 µM | [13] 21.7 µM | [14] 21 µM | [5] 75.3 µM | [15] 41.2 µM | [6] 67.9 µM | [17] 88.7 µM | [8] 31.2 µM | [9] > 100 µM | [10] 41.6 µM | [11] > 100 µM

Cc1ccc(S(=O)(=O)NC(=O)Nc2ccc(C(=O)O)cc2)cc1
inactive: [12] > 100 µM | [1] > 100 µM | [13] > 100 µM | [2] > 100 µM | [3] > 100 µM | [4] > 100 µM | [14] > 100 µM | [5] > 100 µM | [15] > 100 µM | [16] > 100 µM | [7] > 100 µM | [17] > 100 µM | [8] > 100 µM | [9] > 100 µM | [10] > 100 µM | [11] > 100 µM

O=C1NCC2(CCNCC2)N1
inactive: [18] > 100 µM | [1] > 100 µM | [13] > 100 µM | [2] > 100 µM | [3] > 100 µM | [4] > 100 µM | [14] > 100 µM | [5] > 100 µM | [15] > 100 µM | [6] > 100 µM | [7] > 100 µM | [17] > 100 µM | [8] > 100 µM | [9] > 100 µM | [10] > 100 µM | [11] > 100 µM

Cc1ccc(/C=C2/N/C(=N\N=C/c3ccccc3)NC2=O)cc1
inactive: [12] 29.9 µM | [13] 28.6 µM | [3] 46.3 µM | [4] 25.8 µM | [14] 39.1 µM | [5] 31.7 µM | [15] 42.1 µM | [6] 24.2 µM | [16] 28.2 µM | [7] 21.9 µM | [17] 54.2 µM | [8] 42.5 µM | [9] 36.4 µM | [10] 41.6 µM | [11] 32.2 µM

COc1ccc2[nH]cc(CCNC(=O)[C@H](Cc3ccccc3)NC(=O)[C@@H](NCC(F)(F)F)C(C)C)c2c1
inactive: [12] 21.4 µM | [13] 16.5 µM | [2] 20.1 µM | [3] 16.7 µM | [4] 18.6 µM | [14] 22.1 µM | [5] 17.7 µM | [15] 18.5 µM | [6] 19.8 µM | [16] 18.2 µM | [7] 20.4 µM | [17] 25.3 µM | [8] 23.3 µM | [9] 17.2 µM | [10] 28.5 µM | [11] 22 µM
active: [1] 0.809 µM

CCOC(=O)C1c2[nH]c3ccccc3c2CCN1C(=O)c1ccc(OC)o1 (stereo unspecified)
inactive: [18] > 10 µM | [1] > 10 µM | [2] > 10 µM | [3] > 10 µM | [4] > 10 µM | [14] > 10 µM | [5] > 10 µM | [15] > 10 µM | [6] > 10 µM | [16] > 10 µM | [7] > 10 µM | [17] > 10 µM | [8] > 10 µM | [9] > 10 µM | [10] > 10 µM | [11] > 10 µM

CCN(CC)CCCNc1nc(=O)[nH]c(C)c1C(=O)Nc1cccc2cc3ccccc3cc12
inactive: [1] > 100 µM | [13] > 100 µM | [2] > 100 µM | [3] > 100 µM | [14] > 100 µM | [5] > 100 µM | [15] 82.4 µM | [6] > 100 µM | [16] > 100 µM | [7] > 100 µM | [17] > 100 µM | [8] > 100 µM | [9] > 100 µM | [10] > 100 µM | [11] > 100 µM

N#Cc1nc(CCCN2C(=O)c3ccccc3C2=O)oc1N
inactive: [12] > 100 µM | [1] > 100 µM | [13] > 100 µM | [3] > 100 µM | [4] > 100 µM | [14] > 100 µM | [5] > 100 µM | [15] > 100 µM | [6] > 100 µM | [16] > 100 µM | [7] > 100 µM | [17] > 100 µM | [8] > 100 µM | [9] > 100 µM | [10] > 100 µM | [11] > 100 µM

CC(C(O)c1ccccc1)C(O)(C(F)(F)F)C(F)(F)F (stereo unspecified)
inactive: [18] > 100 µM | [1] > 100 µM | [13] > 100 µM | [2] > 100 µM | [3] > 100 µM | [4] > 100 µM | [14] > 100 µM | [5] > 100 µM | [15] > 100 µM | [6] > 100 µM | [16] > 100 µM | [7] > 100 µM | [17] > 100 µM | [8] > 100 µM | [9] > 100 µM | [10] > 100 µM | [11] > 100 µM

COc1cc2c(cc1OCCCCCCCCN1C(=O)c3cccc4cccc(c34)C1=O)N=C[C@@H]1CCCN1C2=O
inactive: [12] 12.6 µM | [1] 2.82 µM | [13] 19.1 µM | [2] 13.8 µM | [3] 15.7 µM | [4] 22.1 µM | [14] 6.89 µM | [5] 37.3 µM | [15] 8.63 µM | [6] 14.3 µM | [7] 3.48 µM | [17] 15.1 µM | [8] 14.9 µM | [9] 17.9 µM | [10] 18.7 µM | [11] 29.7 µM

COC(=O)/C=C1/OC(c2ccccc2)=C(Br)C1=O
inactive: [18] 70.8 µM | [12] 18.7 µM | [1] 25.8 µM | [13] 17.9 µM | [2] 35.2 µM | [3] 20.1 µM | [14] 24.3 µM | [5] 44.7 µM | [15] 8.07 µM | [6] 38 µM | [16] 42.1 µM | [7] 28.5 µM | [17] 57.5 µM | [8] 29.9 µM | [9] 64.1 µM | [10] 18.4 µM | [11] 80.5 µM

COc1ccc(-c2c(C#N)c(S)n(NS(=O)(=O)c3ccccc3)c(=O)c2C#N)cc1
inactive: [12] 14.3 µM | [1] 24.3 µM | [13] 37.9 µM | [2] 47.1 µM | [3] 45.6 µM | [4] 49 µM | [14] 35.9 µM | [5] 58.6 µM | [15] 88.9 µM | [6] 34.3 µM | [16] 45.6 µM | [7] 53.2 µM | [17] 75.2 µM | [8] 48.8 µM | [9] > 100 µM | [10] 40.9 µM | [11] 29.3 µM

CC1=C[P+](c2ccccc2)(c2ccccc2)c2ccccc2O1
inactive: [12] 10 µM | [13] 3.71 µM | [2] 2.06 µM | [3] 2.91 µM | [4] 2.53 µM | [14] 4.45 µM | [5] 3.39 µM | [15] 3.96 µM | [6] 2.47 µM | [7] 2.15 µM | [17] 4.07 µM | [8] 5.14 µM | [9] 7.01 µM | [10] 5.86 µM | [11] 14 µM

O=C(C[n+]1ccccc1)N/N=C(\C(=O)NC1=C(Cl)C(=O)c2ccccc2C1=O)c1c(O)c2ccc(O)cc2oc1=O
inactive: [18] 19.9 µM | [12] 5.14 µM | [1] 4.94 µM | [13] 2.99 µM | [2] 3.43 µM | [3] 3.08 µM | [14] 2.63 µM | [5] 3.5 µM | [15] 7.73 µM | [6] 2.01 µM | [7] 11 µM | [17] 2.52 µM | [8] 3.66 µM | [9] 2.94 µM | [10] 3.89 µM | [11] 23.7 µM

CN1C(=O)C(O)C[C@@H]1c1ccc(F)cc1 (stereo partly specified)
inactive: [12] > 100 µM | [1] > 100 µM | [13] > 100 µM | [2] > 100 µM | [3] > 100 µM | [14] > 100 µM | [5] > 100 µM | [15] > 100 µM | [6] > 100 µM | [16] > 100 µM | [7] > 100 µM | [17] > 100 µM | [9] > 100 µM | [11] > 100 µM
